Test results reported in patent US5955500A (G. D. Searle & Co., priority 1997, dated 1999).
Like-named read-outs stand apart in the source and are kept apart here.

Assays:
[1] = test system: isolated working rat heart; settings: R 950 ng/ml
[2] = test system: canine heart; settings: for AH time / Heart rate / Mean arterial pressure: mean ± SE
Description: Fourteen adult mongrel dogs of either sex weighing between 19 and 25 kg were prepared for chronic electrophysiologic investigation by implanting epicardial electrodes and an indwelling aortic catheter. The dogs were fasted overnight and initially anesthetized with halothane on the day of surgery. After tracheal intubation, anesthesia was maintained with isoflurane and oxygen via positive pressure ventilation to keep end tidal carbon dioxide within the normal range. Muscular relaxation was induced by pancuronium. A right thoracotomy was performed in the fifth intercostal space. Three bipolar electrode pairs were sutured to the epicardial surface of the right atrial appendage and on the right and left ventricular apex (FIG. 5). A bipolar electrode was sutured to the right atrium close to the anatomical region of the sinoatrial node. A bipolar plunge electrode was placed into base of the interventricular septum to record a His bundle electrogram. An indwelling arterial catheter was placed into the aorta through the left femoral artery after surgical exposure of the artery at the inner side of the hind limb. All electrode leads were subcutaneously tunneled and exited through the skin between the scapulae. Incisions were closed in anatomic fashion and standard postoperative methods of analgesia were provided with 0.015 mg/kg of buprenorphine (Buprenex®, Reckitt & Colman, Hull, UK) and two times of 25 mg/kg cefazolin (Cefazolin Sodium®, SoloPak Laboratories, Elk Groove Village, Ill.) and dogs were allowed to recover from surgery for a period of seven days prior to testing.
Electrical signals from the bipolar electrodes, after suitable amplification in a custom built preamplifier (gain 1000), were filtered in a separate custom designed and built common mode rejection amplifier with a bandpass filter of 10-1000 Hz and individually adjusted for signal strength (maximal gain 400). […] Right atrial appendage (RA), right ventricular apex (RVA) and His bundle electrograms (HB) were recorded, simultaneously. […] All measurements of conduction times were made during spontaneous sinus rhythm.
The His bundle electrode (HBE) was advanced into the base of the interatrial septum from the aortic root. The electrode was advanced from a point located just behind and to the right of the origin of the right coronary artery. The HBE was slowly advanced parallel to the aorta, inferiorly and slightly anteriorly until a well discernible His potential was recorded. AV conduction (AH) interval was measured as the time difference (ms) between the onset of the initial rapid deflection in the RA electrogram to the beginning of the His potential in the HB electrogram. His-ventricular (HV) conduction time interval (ms) was measured from the beginning of the His potential (HBE) to the initial deflection of the QRS complex wave (earliest left ventricular activation) in a simultaneously recorded surface ECG lead II.
As an indicator of automaticity, sinus node recovery time (SNRT) was determined by pacing the right atrial appendage (30 s at 180 and 200 beats/min at 2 msec pulse duration; 2×threshold). SNRT was measured from the last pacing spike to the first spontaneous atrial activity on the His bundle electrogram after cessation of pacing (ms).
A timed extrastimulus (S2) was delivered 300 ms after the preceding pacing spike (S1).
Verapamil was dissolved in 5% dextrose and water ([…]).
During the postoperative period, each dog was trained to stand quietly in a sling during electrophysiological monitoring. Prior to measurement, electrical signals in each dog were monitored to verify the absence of spontaneous arrhythmias other-than normal respiratory sinus arrhythmias.
From the resting dog, 5 channel records were obtained at a sampling rate of 1 kHz per channel for 7 min to determine the following conduction intervals: AH, HV, QRS, QT and HR. A corrected QT interval [QTc=QT interval in ms/ (R-R interval in s)^1/2 ] was also calculated.

[3] = test system: isolated working rat heart
[4] = test system: isolated working rat heart; remark: listed apart in the source

## COc1ccc(CCN(C)CCC[C@](C#N)(c2ccc(OC)c(OC)c2)C(C)C)cc1OC [R-verapamil, reference compound]
[1]
  Effect on peak systolic pressure (PSP), in words: no apparent effect on PSP
[1]; S 100 ng/ml
  Nature of cardiac effect (inotropic / chronotropic): primarily chronotropic
[1]; S 100 ng/ml, R/S ratio 9.5
  Peak systolic pressure (PSP), significance vs predrug: n.s.
[2]; 0.1 mg/kg i.v., 0 min
  AH time: 88 ± 5 ms
  Heart rate: 103 ± 9 beats per min
  Mean arterial pressure: 94 ± 3 mmHg
[2]; 0.1 mg/kg i.v., 1 min
  AH time: 94 ± 4 ms
  Heart rate: 95 ± 7 beats per min
  Mean arterial pressure: 95 ± 3 mmHg
[2]; 0.1 mg/kg i.v., 2 min
  AH time: 93 ± 5 ms
  Heart rate: 98 ± 8 beats per min
  Mean arterial pressure: 95 ± 2 mmHg
[2]; 0.1 mg/kg i.v., 3 min
  AH time: 93 ± 5 ms
  Heart rate: 93 ± 7 beats per min
  Mean arterial pressure: 95 ± 3 mmHg
[2]; 0.1 mg/kg i.v., 4 min
  AH time: 95 ± 5 ms
  Heart rate: 91 ± 8 beats per min
  Mean arterial pressure: 95 ± 3 mmHg
[2]; 0.1 mg/kg i.v., 5 min
  AH time: 95 ± 5 ms
  Heart rate: 92 ± 8 beats per min
  Mean arterial pressure: 95 ± 3 mmHg
[2]; 0.2 mg/kg i.v., 0 min
  AH time: 93 ± 4 ms
  Heart rate: 106 ± 7 beats per min
  Mean arterial pressure: 90 ± 3 mmHg
[2]; 0.2 mg/kg i.v., 1 min
  AH time: 99 ± 5 ms
  Heart rate: 104 ± 8 beats per min
  Mean arterial pressure: 97 ± 3 mmHg
[2]; 0.2 mg/kg i.v., 2 min
  AH time: 97 ± 5 ms
  Heart rate: 99 ± 9 beats per min
  Mean arterial pressure: 97 ± 3 mmHg
[2]; 0.2 mg/kg i.v., 3 min
  AH time: 98 ± 4 ms
  Heart rate: 102 ± 9 beats per min
  Mean arterial pressure: 94 ± 2 mmHg
[2]; 0.2 mg/kg i.v., 4 min
  AH time: 98 ± 4 ms
  Heart rate: 96 ± 8 beats per min
  Mean arterial pressure: 96 ± 2 mmHg
[2]; 0.2 mg/kg i.v., 5 min
  AH time: 99 ± 5 ms
  Heart rate: 95 ± 9 beats per min
  Mean arterial pressure: 92 ± 2 mmHg
[2]; 0.4 mg/kg i.v., 0 min
  AH time: 97 ± 4 ms
  Heart rate: 123 ± 5 beats per min
  Mean arterial pressure: 86 ± 2 mmHg
[2]; 0.4 mg/kg i.v., 1 min
  AH time: 106 ± 5 ms
  Heart rate: 108 ± 6 beats per min
  Mean arterial pressure: 94 ± 2 mmHg
[2]; 0.4 mg/kg i.v., 2 min
  AH time: 106 ± 4 ms
  Heart rate: 109 ± 5 beats per min
  Mean arterial pressure: 98 ± 3 mmHg
[2]; 0.4 mg/kg i.v., 3 min
  AH time: 104 ± 4 ms
  Heart rate: 106 ± 7 beats per min
  Mean arterial pressure: 97 ± 3 mmHg
[2]; 0.4 mg/kg i.v., 4 min
  AH time: 104 ± 5 ms
  Heart rate: 108 ± 7 beats per min
  Mean arterial pressure: 99 ± 3 mmHg
[2]; 0.4 mg/kg i.v., 5 min
  AH time: 105 ± 5 ms
  Heart rate: 111 ± 6 beats per min
  Mean arterial pressure: 98 ± 3 mmHg
[2]; increase in HR against drop in MAP
  Interaction between MAP and HR (multiple linear regression), in words: least increase in heart rate measured against a drop in blood pressure
[3]; R alone, R1-R4 (50-950 ng/ml cumulative)
  Peak systolic pressure (PSP), significance vs predrug: n.s.
[3]; R exceeding 200 ng/ml (R2)
  Cardiac output change, in words: Cardiac output appears to increase
[4]; R1 (50 ng/ml)
  Cardiac output (CO), significance vs baseline: n.s.
  Heart rate (HR), significance vs baseline: n.s.
  Peak systolic pressure (PSP), significance vs baseline: n.s.
[4]; R2 (200 ng/ml)
  Cardiac output (CO), significance vs baseline: n.s.
  Heart rate (HR), significance vs baseline: n.s.
  Peak systolic pressure (PSP), significance vs baseline: n.s.
[4]; R3 (450 ng/ml)
  Cardiac output (CO), significance vs baseline: n.s.
  Heart rate (HR), significance vs baseline: n.s.
  Peak systolic pressure (PSP), significance vs baseline: n.s.
[4]; R4 (950 ng/ml)
  Peak systolic pressure (PSP), significance vs baseline: n.s.
[4]; increasing levels of R
  Effect on peak systolic pressure (PSP), in words: remains unaffected by increasing levels of R
